Entries after “also recorded” stand apart in the source; their conditions may differ. Values belong to the compound of their own block, whether it stands above or below them.
Legend:
[1] = tested on: Human cervical cancer HeLa cells (cell strain: 15S3D); experiment: Measurement of organ distribution in cancer-bearing mice; details: 1 hour after administration; for ratio of accumulation to the pancreas to accumulation to the tumor indicated by SUV (organ)/SUV (blood): D-form compared with L-form; for accumulation in the tumor, SUV (organ)/SUV (blood) / accumulation in the normal tissues, SUV (organ)/SUV (blood) / SUV (organ: tumor)/SUV (blood), D-form compared with L-form: HeLa-transplanted nude mice, tail vein; for accumulation in the tumor, SUV (organ)/SUV (blood): 10 MBq (11C) or 1 MBq (18F), gamma counter; for specificity of accumulation to tumor: from SUV (organ)/SUV (blood) of the organs
Experimental: Human cervical cancer HeLa cells (cell strain: 15S3D) were subcutaneously transplanted at 5×10^6 cells/mouse to the thighs of 7-week-old nude mice (BALB/cA Jcl-nu, Clea Japan, Inc). […] After 1 hour of the administration, the mice were decapitated to collect each organ (blood, heart, lung, liver, kidney, spleen, muscle, bone, small intestine, gastrointestinal tract, pancreas, brain, and tumor). The radioactivity of each organ was measured with an automatic gamma counter, and the weight of each organ was measured. SUV (standardized uptake value) that served as an index of the accumulating amounts of the administered compounds was determined. Furthermore, to correct the accumulating amounts, SUV (organ)/SUV (blood) was determined by dividing the SUV of each organ by the SUV of blood.

HeLa = experiment: Planar measurement in cancer-bearing mice; details: 2.5 MBq tail vein, 60 minutes measurement; for accumulation in the tumor site (planar imaging): PPIS-4800; for accumulation in the normal tissues (planar imaging): compared with tumor site
Experimental: Measurement was performed (1 minute×60 frames) for 60 minutes immediately after the compound administration by use of a planar imaging system (PPIS-4800 manufactured by Hamamatsu Photonics K. K.) and indicated by images each comprising 10 frames integrated.

[2] = tested on: HeLa-K (cell strain: 15S3D) and HeLa-B (JCRB9004); experiment: Relationship between tumor proliferation rate and degree of accumulation of labeled compound for positron imaging; assay type: in vivo, nude mice (BALB/cA Jcl-nu)
Excerpt: HeLa-K (cell strain: 15S3D) and HeLa-B (Health Science Research Resources Bank: JCRB9004) were subcutaneously transplanted at 5×10^6 cells/mouse and 2×10^7 cells/mouse, respectively, to the thighs of female BALB/cA Jcl-nu nude mice (HeLa-K: 7-week-old mice, HeLa-B: 5-week-old mice). The HeLa-K- and HeLa-B-transplanted mice, when becoming 9 week old after 2 weeks and 4 weeks of the transplantation, respectively, were used in the experiment. To examine the relationship between the accumulation of each labeled compound in the cancer-bearing mice and the proliferation rate of the tumor tissue, tumor size was daily measured. Doubling time (DT) was calculated according to the calculation formula: DT=t×log2 (V1/V0) proposed by Schwartz, wherein t denotes the number of days required for the tumor volume to reach V1 (mm^3) from V0 (mm^3), and the volume (mm^3) was calculated according to ½×length (mm)×width^2 (mm^2) from the major axis of the tumor. FIG. 7 is a graph showing the relationship between the number of days elapsed after HeLa transplantation and tumor volumes. […] The doubling times of HeLa-K and HeLa-B calculated from FIG. 7 were 4.4 days and 11.0 days, respectively.
The HeLa-K- and HeLa-B-transplanted nude mice were administered through the tail veins with [^18F]FDG, [^11C]choline, [^18F]FLT, L- and D-[^11C]Met, and L- and D-[^11C]MT at 1 MBq ([^18F]FDG and [^18F]FLT) or 10 MBq ([^11C]choline, L- and D-[^11C]Met, and L- and D-[^11C]MT). […] The radioactivities of the blood and tumor were measured with an automatic gamma counter, their weights were measured, and SUV was determined.
HeLa-K- and HeLa-B-transplanted nude mice were administered through the tail veins with L- and D-[^11C]ET, L- and D-[^18F]FMT, L-and D-[^18F]FET, and L- and D-[^18F]FPT at 10 MBq (L- and D-[^11C]ET) or 1 MBq (the others). […] The radioactivities of the blood and tumor were measured with an automatic gamma counter, their weights were measured, and SUV was determined.

cancer cells = details: cited from earlier work
tumor tissues = details: in vivo; cited from earlier work
[3] = HeLa-K versus HeLa-B tumors, SUV (organ)/SUV (blood), 1 hour after administration

Compound: C[11CH2]Oc1ccc(C[C@@H](N)C(=O)O)cc1 [D-[^11C]ET, O—[^11C]ethyl-D-tyrosine]
ratio of accumulation to the pancreas to accumulation to the tumor indicated by SUV (organ)/SUV (blood) [1]: lower in the D-form than in the L-form
accumulation in the tumor, SUV (organ)/SUV (blood) [1]: observed in the tumor
accumulation in the normal tissues, SUV (organ)/SUV (blood) [1]: low in the normal tissues except for the pancreas
specificity of accumulation to tumor [1]: specific to the tumor

Compound: [11CH3]Oc1ccc(C[C@@H](N)C(=O)O)cc1 [D-[^11C]MT, O—[^11C]methyl-D-tyrosine]
tumor-specific accumulation, D-form compared with L-form (planar imaging) (HeLa): accumulate in a manner specific to the tumor as compared with the L-form
accumulation in the tumor site (planar imaging) (HeLa): observed in the tumor site
accumulation in tumor, SUV (organ)/SUV (blood), HeLa-K versus HeLa-B ([2]; HeLa-K doubling time 4.4 days, HeLa-B 11.0 days, tail vein, 1 hour after administration): accumulated more in HeLa-K exhibiting faster proliferation
difference in the degree of accumulation depending on the difference in proliferation rate [2, 3]: remarkably large
ratio of accumulation to the pancreas to accumulation to the tumor indicated by SUV (organ)/SUV (blood) [1]: lower in the D-form than in the L-form
accumulation in the tumor, SUV (organ)/SUV (blood) [1]: observed in the tumor
SUV (organ: tumor)/SUV (blood), D-form compared with L-form [1]: higher value of SUV (organ: tumor)/SUV (blood) than the L-form
accumulation in the normal tissues, SUV (organ)/SUV (blood) [1]: low in the normal tissues except for the pancreas
specificity of accumulation to tumor [1]: specific to the tumor

Compound: [11CH3]SCC[C@@H](N)C(=O)O [D-[^11C]Met, reference compound]
accumulation in the tumor site (planar imaging) (HeLa): observed in the tumor site
accumulation in the normal tissues (planar imaging) (HeLa): significantly stronger in the normal tissues
accumulation in the tumor, SUV (organ)/SUV (blood) [1]: observed in the tumor
accumulation in the normal tissues, SUV (organ)/SUV (blood) [1]: also high in the normal tissues
specificity of accumulation to tumor [1]: low specificity to tumor

ratio of accumulation to the pancreas to accumulation to the tumor indicated by SUV (organ)/SUV (blood) [1]: lower in the D-form than in the L-form
accumulation in the tumor, SUV (organ)/SUV (blood) [1]: observed in the tumor
Compound: N[C@H](Cc1ccc(OCC[18F])cc1)C(=O)O [D-[^18F]FET, O—[^18F]fluoroethyl-D-tyrosine]
uptake to cancer cells (cancer cells): low uptake to cancer cells
accumulation in tumor tissues (tumor tissues): does not accumulate in tumor tissues
SUV (organ: tumor)/SUV (blood), D-form compared with L-form [1]: higher value of SUV (organ: tumor)/SUV (blood) than the L-form
accumulation in the normal tissues, SUV (organ)/SUV (blood) [1]: low in the normal tissues except for the pancreas
specificity of accumulation to tumor [1]: specific to the tumor; also recorded: particularly high specificity to the tumor

Compound: N[C@H](Cc1ccc(OC[18F])cc1)C(=O)O [D-[^18F]FMT, O—[^18F]fluoromethyl-D-tyrosine]
tumor-specific accumulation, D-form compared with L-form (planar imaging) (HeLa): accumulate in a manner specific to the tumor as compared with the L-form
accumulation in the tumor site (planar imaging) (HeLa): observed in the tumor site
difference in the degree of accumulation depending on the difference in proliferation rate [2, 3]: remarkably large as compared with L-[^18F]FMT
SUV (organ: tumor)/SUV (blood), D-form compared with L-form [1]: higher value of SUV (organ: tumor)/SUV (blood) than the L-form
specificity of accumulation to tumor [1]: particularly high specificity to the tumor

Compound: N[C@H](Cc1ccc(OCCC[18F])cc1)C(=O)O [D-[^18F]FPT, O—[^18F]fluoropropyl-D-tyrosine]
ratio of accumulation to the pancreas to accumulation to the tumor indicated by SUV (organ)/SUV (blood) [1]: lower in the D-form than in the L-form
accumulation in the tumor, SUV (organ)/SUV (blood) [1]: observed in the tumor
accumulation in the normal tissues, SUV (organ)/SUV (blood) [1]: low in the normal tissues except for the pancreas and bone
specificity of accumulation to tumor [1]: specific to the tumor

Compound: C[11CH2]Oc1ccc(C[C@H](N)C(=O)O)cc1 [L-[^11C]ET, O—[^11C]Ethyl-L-tyrosine, reference compound]
accumulation in the tumor, SUV (organ)/SUV (blood) [1]: observed in the tumor
accumulation in the normal tissues, SUV (organ)/SUV (blood) [1]: low in the normal tissues except for the pancreas
specificity of accumulation to tumor [1]: specific to the tumor

Compound: [11CH3]Oc1ccc(C[C@H](N)C(=O)O)cc1 [L-[^11C]MT, O—[^11C]methyl-L-tyrosine, reference compound]
accumulation in the tumor site (planar imaging) (HeLa): observed in the tumor site
accumulation in the tumor, SUV (organ)/SUV (blood) [1]: observed in the tumor
accumulation in the normal tissues, SUV (organ)/SUV (blood) [1]: low in the normal tissues except for the pancreas
specificity of accumulation to tumor [1]: specific to the tumor

accumulation in the tumor site (planar imaging) (HeLa): observed in the tumor site
accumulation in the tumor, SUV (organ)/SUV (blood) [1]: observed in the tumor
accumulation in the normal tissues, SUV (organ)/SUV (blood) [1]: also high in the normal tissues
specificity of accumulation to tumor [1]: low specificity to tumor
Compound: [11CH3]SCC[C@H](N)C(=O)O [L-[^11C]Met, L-[^11C]methionine, reference compound]
accumulation in the normal tissues (planar imaging) (HeLa): significantly stronger in the normal tissues
difference in the degree of accumulation depending on the difference in proliferation rate ([2]; mouse, in vivo): not detected

Compound: N[C@@H](Cc1ccc(OCC[18F])cc1)C(=O)O [L-[^18F]FET, O—[^18F]Fluoroethyl-L-tyrosine, reference compound]
accumulation in the tumor, SUV (organ)/SUV (blood) [1]: observed in the tumor
accumulation in the normal tissues, SUV (organ)/SUV (blood) [1]: low in the normal tissues except for the pancreas
specificity of accumulation to tumor [1]: specific to the tumor

Compound: N[C@@H](Cc1ccc(OC[18F])cc1)C(=O)O [L-[^18F]FMT, O—[^18F]fluoromethyl-L-tyrosine]
accumulation in the tumor site (planar imaging) (HeLa): observed in the tumor site

Compound: N[C@@H](Cc1ccc(OCCC[18F])cc1)C(=O)O [L-[^18F]FPT, O—[^18F]Fluoropropyl-L-tyrosine, reference compound]
accumulation in the tumor, SUV (organ)/SUV (blood) [1]: observed in the tumor
accumulation in the normal tissues, SUV (organ)/SUV (blood) [1]: low in the normal tissues except for the pancreas and bone
specificity of accumulation to tumor [1]: specific to the tumor

Compound: [^18F]-2-fluoro-2-deoxy-D-glucose [[^18F]FDG, reference compound]
difference in the degree of accumulation depending on the difference in proliferation rate ([2]; mouse, in vivo): not detected
